Results as given in ChEMBL document CHEMBL1133169, “A light-inactivated antibiotic” (2000).

How the values were obtained:
[1] = target: Beta-lactamase TEM (Escherichia coli) (UniProt P62593); test: The turnover kinetic parameter (kcat) evaluated for Class A TEM-1 beta-lactamase
[2] = target: Beta-lactamase TEM (Escherichia coli) (UniProt P62593); test: The turnover kinetic parameter (kcat/Km) evaluated for class A TEM-1 Beta-latctamase
[3] = The turnover kinetic parameter (kcat) evaluated for class C Q908R Beta-latctamase
[4] = The turnover kinetic parameter (kcat/Km) evaluated for class C Q908R Beta-latctamase
[5] = The turnover kinetic parameter (Km) evaluated for Class C Q908R Beta-lactamase

Beta-lactamase TEM (Escherichia coli), sequence (P62593 whole entry): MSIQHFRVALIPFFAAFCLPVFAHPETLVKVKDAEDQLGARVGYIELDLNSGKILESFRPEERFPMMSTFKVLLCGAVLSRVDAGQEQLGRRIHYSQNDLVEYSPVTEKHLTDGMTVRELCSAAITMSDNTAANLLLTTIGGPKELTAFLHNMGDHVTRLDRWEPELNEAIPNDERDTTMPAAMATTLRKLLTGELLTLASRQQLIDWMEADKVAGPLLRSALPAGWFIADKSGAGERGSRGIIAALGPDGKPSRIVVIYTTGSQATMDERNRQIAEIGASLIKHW

Compound CC(=O)OCC1=C(C(=O)O)N2C(=O)[C@@H](NC(=O)[C@@H](Cc3ccccc3)NNC(=O)OCc3ccccc3[N+](=O)[O-])C2SC1 (stereo not given in full) has a k cat [1] of 7.4 s⁻¹, a k cat/Km [2] of 93000 M⁻¹ s⁻¹ and a k cat [3] of 1770 s⁻¹. It also gave a k cat/Km [4] of 2.8e+07 M⁻¹ s⁻¹ and a Km [5] of 62 µM.
